Results from US20080207700A1, “Amino Acid Salts of Rosiglitazone” (priority 2005, published 2008).

Test: physchem
Method: The following buffer solutions were used:
Thereafter, the suspensions were treated in an ultrasonic bath for 1 minute, the pH was checked and, where necessary, readjusted to the value given respectively below. Then, the solutions were 0.45 μm filtrated.
The absorption of thus produced solutions was measured at 345 nm.

Compound | solubility at 1 min (pH 11.8, aqueous buffer, thermodynamic from solid) [mg/mL] | water solubility (pH 6) [mg/mL]
CN(CCOc1ccc(CC2SC(=O)NC2=O)cc1)c1ccccn1 (centres unmarked) [Base, 5-(4-/2-(N-methyl-N-(2-pyridyl)amino)ethoxy/benzyl)-2,4-thiazolidinedione] | > 50 | –
CN(CCOc1ccc(CC2SC(=O)NC2=O)cc1)c1ccccn1.O=C(O)/C=C\C(=O)O (centres unmarked) [Maleate, rosiglitazone maleate] | – | < 0.1
